Test system: HIV
Test: Testing virostatic activity of adefovir diphosphate 8 in TZM-bl cell culture infected with HIV
Assay type: cell-based, Human immunodeficiency virus
Excerpt: The subject of testing was the compound of structure formula 8 (adefovir diphosphate) which is a known (Mulato & Cherrington, 1997) active metabolite—the reverse transcriptase inhibitor—in inhibiting the replication of viral DNA of HIV. In determining activity of […], compound 7 (tenofovir), which is a clinically approved drug used for the treatment of HIV, was used as a standard. […] Then the solution of the complex was removed and the infected cells were overlaid with medium with serum and incubated at 37° C. Parallel control experiments were performed (without infection; infection without active substance; 10 μmol·l^−1 tenofovir 7 throughout incubation; compound 8 without a carrier).

With `Nc1ncnc2c1ncn2CCOCP(=O)(O)OP(=O)(O)OP(=O)(O)O` [Compound 8, adefovir diphosphate] the “Virostatic activity compared with tenofovir 7 standard” value (10 μmol·l−1 complex of compound 8 and transporter 6c in buffer A for 10 minutes, three days of incubation, standard 10 μmol·l−1 tenofovir 7 throughout incubation, FIG. 7) was “identical with the control experiments where a solution of compound 7 was present in the medium throughout the incubation” and the “Activity relative to drug 7, concluded from the shorter time of application” value (compound 8 applied using the 6c carrier for 10 min vs compound 7 present throughout incubation) was “more active than the clinically used drug 7”.
